These are literature values, as cited in PMC8815272 (The Journal of Supercritical Fluids, 2022).

For this series the following is noted: cited from earlier work.
The mark [1] stands for this setting: SC-CO2, 12.2–35.5 MPa, 308–348 K.
Where [2] appears, read: SC-CO2, 14.9–25.5 MPa, 303–323 K.
Setting [3] is: SC-CO2, 12.16–35.46 MPa, 308–348 K.
The mark [4] stands for this setting: SC-CO2, 15.5–30.5 MPa, 315–345 K.
Where [5] appears, read: SC-CO2, 10–26 MPa, 308.2–328.2 K.
Setting [6] is: SC-CO2, 12–30 MPa, 313.2–343.2 K.
[7] abbreviates: SC-CO2, 10–30.3 MPa, 308.2–328.2 K.
The mark [8] stands for this setting: SC-CO2, 12–30 MPa, 308.2–338.2 K.
[9] abbreviates: SC-CO2, 9.2–24.4 MPa, 308.2–328.2 K.
Where [10] appears, read: SC-CO2, 12–27 MPa, 308.15–338.15 K.
Setting [11] is: SC-CO2, 9–25 MPa, 308.2–328.2 K.

Structures can show the parent of a compound that is named as a salt. Where two headings read alike, the source gives them in different places.

Consider `CC[C@H]1OC(=O)[C@H](C)[C@@H](O[C@H]2C[C@@](C)(OC)[C@@H](O)[C@H](C)O2)[C@H](C)[C@@H](O[C@@H]2O[C@H](C)C[C@H](N(C)C)[C@H]2O)[C@](C)(O)C[C@@H](C)CN(C)[C@H](C)[C@@H](O)[C@]1(C)O` [Azithromycin], for which, under setting [1], the “Crossover (MPa)” value is recorded as 13.8–14 MPa and the “Mole fraction (y)” value is listed as 6.9 × 10^−5 to 2.73 × 10^−4.
For the molecule `Cc1cnc(NC(=O)C2=C(O)c3ccccc3S(=O)(=O)N2C)s1` [Meloxicam sodium], under setting [2], the “Crossover (MPa)” value is 15–17 MPa and the “Mole fraction (y)” value is given as 4.41 × 10^−6 to 12.76 × 10^−6.
Regarding `CC(C)n1c(/C=C/C(O)CC(O)CC(=O)O)c(-c2ccc(F)cc2)c2ccccc21` (stereo not drawn) [Fluvastatin], under setting [3], the “Crossover (MPa)” value is 17 MPa and the “Mole fraction (y)” value is 5 × 10^−6 to 6 × 10^−4.
For `CC(=O)OCC(=O)[C@H]1CC[C@H]2[C@@H]3CCC4=CC(=O)CC[C@]4(C)[C@H]3CC[C@]12C` [Desoxycorticosterone acetate], under setting [4], the “Crossover (MPa)” value is listed as 24.5 MPa and the “Mole fraction (y)” value was 5 × 10^−6 to 1.03 × 10^−4.
For `CS(=O)(=O)OCCCCOS(C)(=O)=O` [Busulfan], where the note is “SC-CO2, 12–40 MPa, 308–338 K”, the “Crossover (MPa)” value is 16 MPa.
As to `Cc1ccc(C(=O)c2ccc(CC(=O)O)n2C)cc1` [Tolmetin], where the note is “SC-CO2, 12–40 MPa, 308–338 K”, the “Crossover (MPa)” value was 16 MPa and the “Mole fraction (y)” value is reported as 5.00 × 10^−5 to 2.59 × 10^−3.
For the molecule `CCN(CC)c1ccc2cc(-c3nc4ccccc4[nH]3)c(=O)oc2c1` [Coumarin-7], under “SC-CO2, 9–33 MPa, 308–338 K”, the “Crossover (MPa)” value was 13–16 MPa and the “Mole fraction (y)” value was 4.15 × 10^−6 to 1.00 × 10^−5.
On to `C[C@@H]1CC[C@H]2[C@@H](C)C(=O)O[C@@H]3O[C@@]4(C)CC[C@@H]1[C@]32OO4` [Artemisinin], for which, where the note is “SC-CO2, 10–25 MPa, 303–328 K”, the “Crossover (MPa)” value is recorded as 13–17 MPa and the “Mole fraction (y)” value is recorded as 10^-4 to 10^-3.
As to `CC[C@H]1OC(=O)[C@H](C)[C@@H](O[C@H]2C[C@@](C)(OC)[C@@H](O)[C@H](C)O2)[C@H](C)[C@@H](O[C@@H]2O[C@H](C)C[C@H](N(C)C)[C@H]2O)[C@](C)(O)C[C@@H](C)C(=O)[C@H](C)[C@@H](O)[C@]1(C)O` [Erythromycin], under setting [1], the “Crossover (MPa)” value is given as 16.8–17 MPa and the “Mole fraction (y)” value was 4.3 × 10^−5 to 3.12 × 10^−4.
On to `CC(C)(O)C(=O)c1ccc(OCCO)cc1` [Irgacure® 2959, 2-Hydroxy-4'-(2-hydroxyethoxy)− 2-methylpropiophenone], for which, under setting [5], the “Crossover (MPa)” value is reported as 14 MPa and the “Mole fraction (y)” value was 5.17 × 10^−6 to 2.83 × 10^−4.
For the molecule `Cn1cnc([N+](=O)[O-])c1Sc1ncnc2nc[nH]c12` [Azathioprine], where the note is “SC-CO2, 12–27 MPa, 308–338 K”, the “Crossover (MPa)” value is 12–15 MPa and the “Mole fraction (y)” value is recorded as 0.27 × 10^−5 to 1.83 × 10^−5.
On to `CCCCc1oc2ccccc2c1C(=O)c1cc(I)c(OCCN(CC)CC)c(I)c1` [Amiodarone hydrochloride], for which, under setting [6], the “Crossover (MPa)” value is given as 19 MPa and the “Mole fraction (y)” value was 2.510 × 10^−5 to 1.012 × 10^−3.
As for `CN1CCC(=C2c3ccccc3C=Cc3ccccc32)CC1` [Cyproheptadine], under “SC-CO2, 16–40 MPa, 308–338 K”, the “Crossover (MPa)” value is 20 MPa and the “Mole fraction (y)” value is listed as 3.35 × 10^−5 to 3.09 × 10^−3.
Regarding `CC[C@H]1OC(=O)[C@H](C)[C@@H](O[C@H]2C[C@@](C)(OC)[C@@H](O)[C@H](C)O2)[C@H](C)[C@@H](O[C@@H]2O[C@H](C)C[C@H](N(C)C)[C@H]2O)[C@](C)(OC)C[C@@H](C)C(=O)[C@H](C)[C@@H](O)[C@]1(C)O` [Clarithromycin], under setting [1], the “Crossover (MPa)” value is reported as 15–15.2 MPa and the “Mole fraction (y)” value is listed as 1.31 × 10^−4 to 3.28 × 10^−4.
Consider `CNC(=O)c1cc(Oc2ccc(NC(=O)Nc3ccc(Cl)c(C(F)(F)F)c3)cc2)ccn1` [Sorafenib tosylate], for which the “Mole fraction (y)” value (SC-CO2, 12–27 MPa, 308–338 K) is given as 0.68 × 10^−6 to 12.57 × 10^−6.
In the case of `CCn1cc(C(=O)O)c(=O)c2cc(F)c(N3CCNCC3)cc21` [Norfloxacin], under setting [7], the “Mole fraction (y)” value is recorded as 1.4 × 10^−6 to 24.4 × 10^−6.
Regarding `CCN(CC)CCNC(=O)c1c(C)[nH]c(/C=C2\C(=O)Nc3ccc(F)cc32)c1C` [Sunitinib malate], for the setting “SC-CO2, 12–27 MPa, 308–338 K”, the “Mole fraction (y)” value is 0.5 × 10^−5 to 8.56 × 10^−5.
On to `CN1CCC(=C2c3ccccc3CC(=O)c3sccc32)CC1` [Ketotifen fumarate], for which, under setting [8], the “Crossover (MPa)” value is given as 20 MPa and the “Mole fraction (y)” value is 2.11 × 10^−5 to 1.07 × 10^−3.
Regarding `O=C1C=CC(=O)c2c(O)cccc21` [Juglone, 5-hydroxy-1,4-naphthoquinone], under setting [9], the “Crossover (MPa)” value is 21–22 MPa and the “Mole fraction (y)” value was 2.0 × 10^−5 to 1.6 × 10^−3.
Turning to `CCC[C@@H]1C[C@@H](C(=O)N[C@@H]([C@H]2O[C@H](SC)[C@H](O)[C@@H](O)[C@H]2O)[C@H](C)Cl)N(C)C1` [Clindamycin], under setting [1], the “Crossover (MPa)” value is recorded as 14.8–15.2 MPa and the “Mole fraction (y)” value is reported as 1.77 × 10^−4 to 1.146 × 10^−3.
On to `Nc1nc(N)c2nc(-c3ccccc3)c(N)nc2n1` [Triamterene, 2,4,7-Triamino-6-phenylpteridine], for which, where the note is “SC-CO2, 12–27 MPa, 308–338 K”, the “Crossover (MPa)” value is 19.2–19.5 MPa and the “Mole fraction (y)” value was 0.03 × 10^−5 to 2.89 × 10^−5.
On to `CC(C(=O)O)c1ccc(CC2CCCC2=O)cc1` (stereo not drawn) [Loxoprofen], for which, for the setting “SC-CO2, 12–40 MPa, 308–338 K”, the “Crossover (MPa)” value is 20 MPa and the “Mole fraction (y)” value is recorded as 1.04 × 10^−5 to 1.28 × 10^−3.
With `CC1COc2c(N3CCN(C)CC3)c(F)cc3c(=O)c(C(=O)O)cn1c23` (stereo not drawn) [Ofloxacin], under setting [7], the “Mole fraction (y)” value is 0.4 × 10^−6 to 1.3 × 10^−6.
As to `CCC(=O)O[C@]1(C(=O)CCl)[C@@H](C)C[C@H]2[C@@H]3CCC4=CC(=O)C=C[C@]4(C)[C@@]3(F)[C@@H](O)C[C@@]21C` [Clobetasol Propionate], under setting [4], the “Crossover (MPa)” value was 24.5 MPa and the “Mole fraction (y)” value was 1 × 10^−6 to 2.1 × 10^−5.
As for `CC(C(=O)O)c1cccc(Oc2ccccc2)c1` (stereo not drawn) [Fenoprofen], for the setting “SC-CO2, 12–40 MPa, 308–338 K”, the “Crossover (MPa)” value is 16 MPa and the “Mole fraction (y)” value was 2.01 × 10^−5 to 4.20 × 10^−3.
As to `CC(C(=O)O)c1ccc(-c2ccccc2)c(F)c1` (stereo not drawn) [Flurbiprofen], for the setting “SC-CO2, 8–25 MPa, 303–323 K”, the “Crossover (MPa)” value is on record as 12 MPa and the “Mole fraction (y)” value is reported as 2.170 × 10^-5 to 19.683 × 10^-5.
`C=CC1=C(C(=O)O)N2C(=O)[C@@H](NC(=O)/C(=N\OCC(=O)O)c3csc(N)n3)[C@H]2SC1` [Cefixime trihydrate]: the “Mole fraction (y)” value (SC-CO2, 18.3–33.5 MPa, 308–328 K) was 1.6 × 10^−7 to 3.02 × 10^−7.
On to `CCOC(=O)N1CCC(=C2c3ccc(Cl)cc3CCc3cccnc32)CC1` [Loratadine], for which, under setting [10], the “Crossover (MPa)” value is reported as 18–21 MPa and the “Mole fraction (y)” value is on record as 4.50 × 10^−6 to 1.30 × 10^−3.
`CC(C)c1c(C(=O)Nc2ccccc2)c(-c2ccccc2)c(-c2ccc(F)cc2)n1CC[C@@H](O)C[C@@H](O)CC(=O)O` [Atorvastatin]: under setting [3], the “Crossover (MPa)” value is on record as 17 MPa and the “Mole fraction (y)” value is 1.12 × 10^−6 to 1.45 × 10^−3.
In the case of `CC(C)c1nc(N(C)S(C)(=O)=O)nc(-c2ccc(F)cc2)c1/C=C/[C@@H](O)C[C@@H](O)CC(=O)O` [Rosuvastatin], under setting [3], the “Crossover (MPa)” value is on record as 17 MPa and the “Mole fraction (y)” value is reported as 3 × 10^−6 to 2.44 × 10^−4.
On to `CC[C@H](C)C(=O)O[C@H]1C[C@@H](C)C=C2C=C[C@H](C)[C@H](CC[C@@H]3C[C@@H](O)CC(=O)O3)[C@H]21` [Lovastatin], for which the “Crossover (MPa)” value under setting [3] is given as 17 MPa.
On to `O=C(O)c1cc(-c2ccc(F)cc2F)ccc1O` [Diflunisal, 5-(2,4-difluorophenyl)− 2-hydroxybenzoic acid], for which, under setting [11], the “Crossover (MPa)” value is listed as 15 MPa and the “Mole fraction (y)” value is recorded as 0.54 × 10^-6 to 8.07 × 10^-6.
